Key:
Butyrylcholinesterase = Butyrylcholinesterase (Homo sapiens, UniProt P06276); assay: biochemical
Acetylcholinesterase = Acetylcholinesterase (Homo sapiens, UniProt P22303); assay: biochemical
Sequence of Acetylcholinesterase (P22303 32-614): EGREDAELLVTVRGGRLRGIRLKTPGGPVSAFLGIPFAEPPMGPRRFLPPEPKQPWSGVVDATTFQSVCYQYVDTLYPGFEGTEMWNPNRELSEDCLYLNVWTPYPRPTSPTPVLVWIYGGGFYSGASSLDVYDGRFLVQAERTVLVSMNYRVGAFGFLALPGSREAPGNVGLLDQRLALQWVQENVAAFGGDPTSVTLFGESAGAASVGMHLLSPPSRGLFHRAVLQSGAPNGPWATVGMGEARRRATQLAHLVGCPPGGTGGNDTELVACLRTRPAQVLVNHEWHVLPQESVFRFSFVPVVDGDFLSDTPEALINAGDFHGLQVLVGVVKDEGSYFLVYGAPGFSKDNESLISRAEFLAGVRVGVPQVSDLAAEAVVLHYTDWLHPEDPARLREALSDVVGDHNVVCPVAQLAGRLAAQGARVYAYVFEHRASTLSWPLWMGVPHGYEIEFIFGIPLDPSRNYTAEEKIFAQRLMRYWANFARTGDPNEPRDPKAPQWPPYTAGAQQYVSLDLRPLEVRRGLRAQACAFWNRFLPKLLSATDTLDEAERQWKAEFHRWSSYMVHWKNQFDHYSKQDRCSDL

Sequence of Butyrylcholinesterase (P06276 29-602): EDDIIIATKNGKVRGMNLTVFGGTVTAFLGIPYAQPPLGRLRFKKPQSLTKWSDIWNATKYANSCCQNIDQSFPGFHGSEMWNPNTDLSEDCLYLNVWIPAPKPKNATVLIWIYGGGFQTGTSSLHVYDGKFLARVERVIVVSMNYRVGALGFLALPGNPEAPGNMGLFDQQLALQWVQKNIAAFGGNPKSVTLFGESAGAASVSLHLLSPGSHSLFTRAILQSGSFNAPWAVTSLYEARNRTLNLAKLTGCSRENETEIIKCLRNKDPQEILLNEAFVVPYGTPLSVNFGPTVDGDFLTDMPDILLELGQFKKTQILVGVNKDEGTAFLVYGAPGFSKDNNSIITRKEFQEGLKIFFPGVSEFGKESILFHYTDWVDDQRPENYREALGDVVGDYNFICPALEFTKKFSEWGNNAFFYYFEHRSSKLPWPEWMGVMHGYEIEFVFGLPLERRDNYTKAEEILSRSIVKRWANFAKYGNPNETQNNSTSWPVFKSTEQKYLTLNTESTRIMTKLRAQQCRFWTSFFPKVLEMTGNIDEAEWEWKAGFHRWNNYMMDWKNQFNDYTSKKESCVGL

Row | Compound | IC50 (Butyrylcholinesterase) | IC50 (Acetylcholinesterase)
1 | COc1ccc2c3c1O[C@H]1C[C@@H](O)C=C[C@@]31CCN(CN(NC(=O)OC(C)(C)C)C(=O)OC(C)(C)C)C2 [Nr 160] | 20 µM | 3.6 µM
2 | COc1ccc2c3c1O[C@H]1C[C@H](N)C=C[C@@]31CCN(C)C2 [Nr 84] | 6 µM | 40 µM
3 | COc1ccc2c3c1OC1C/C(=N/N(C)C)C=CC31CCN(C)C2 (racemic) [Nr 24] | 60 µM | 80 µM
4 | CNC(=S)N1CC[C@@]23C=C[C@H](O)C[C@@H]2Oc2c(OC)ccc(c23)C1 [Nr 129] | 63 µM | 18.5 µM
5 | C=CCN1CCC23C=C[C@H](O)CC2Oc2c(OC)ccc(c23)C1 (mixture of isomers) [Nr 40] | 3.1 µM | 3.3 µM
6 | COc1ccc2c3c1O[C@H]1C[C@@H](O)C=C[C@@]31CCN(CCCN1CC3CC1CN3c1ccc(F)cc1)C2 (stereo partly shown) [Nr 142] | 2.4 µM | 3 µM
7 | COc1cc(C)c2c3c1OC1C[C@H](O)C=CC31CC[N+](C)(Cc1ccc(C(F)(F)F)cc1)C2 (mixture of isomers) [Nr 105] | 5.4 µM | 60 µM
8 | CNC(=S)N1CCC23C=C[C@H](O)CC2Oc2c(OC)cc(Br)c(c23)C1 (mixture of isomers) [Nr 71] | 20 µM | 31 µM
9 | COc1ccc2c3c1O[C@H]1C[C@@H](O)C=C[C@@]31CCN(C(=O)Nc1cccc3ccccc13)C2 [Nr 267] | > 100 µM | 70 µM
10 | CCCCCCN1CCC23C=C[C@H](O)CC2Oc2c(OC)cc(Br)c(c23)C1 (mixture of isomers) [Nr 15] | 0.45 µM | 40 µM
11 | CNC(=S)N1CCC23C=C[C@H](O)CC2Oc2c(OC)ccc(c23)C1 (mixture of isomers) [Nr 73] | 30 µM | 23 µM
12 | COc1cc(C)c2c3c1OC1C[C@@H](O)C=CC31CC[N+](C)(Cc1ccccc1)C2 (mixture of isomers) [Nr 69] | 0.7 µM | 47 µM
13 | COc1ccc2c3c1O[C@H]1C[C@@H](O)C=C[C@@]31CCN(CCN)C2 [Nr 141] | 2.1 µM | 1.3 µM
14 | COc1ccc2c3c1OC1C[C@@H](O)C=CC31CCN(c1nc(OCCCN(C)C)nc(OCCCN(C)C)n1)C2 (mixture of isomers) [Nr 94] | 40 µM | 70 µM
15 | CN1CC[C@@]23C=C[C@H](O)C[C@@H]2Oc2c(Oc4ccccc4)ccc(c23)C1 [Nr 118] | 3.4 µM | 21 µM
16 | COc1ccc2c3c1O[C@H]1C[C@@H](O)C=C[C@@]31CCN(/C(=N/C#N)SC)C2 [Nr 117] | 30 µM | 6.7 µM
17 | COc1ccc2c3c1O[C@H]1C[C@@H](O)C=C[C@@]31CCN(c1cccs1)C2 [Nr 124] | 0.54 µM | 4 µM
18 | CCN(CC)c1nccc(N2CCC34C=C[C@H](O)CC3Oc3c(OC)ccc(c34)C2)n1 (mixture of isomers) [Nr 97] | > 100 µM | 25 µM
19 | C=C(C)C[N+]1(C)CCC23C=C[C@H](O)CC2Oc2c(OC)cc(C)c(c23)C1 (mixture of isomers) [Nr 67] | 2.4 µM | 70 µM
20 | COc1ccc2c3c1O[C@H]1C[C@@H](O)C=C[C@@]31CCN(C(=O)Oc1ccccc1)C2 [Nr 137] | > 100 µM | 46 µM
21 | COc1ccc2c3c1O[C@H]1C[C@@H](O)C=C[C@@]31CCN(C(=O)OC(C)(C)C)C2 [Nr 139] | > 100 µM | 23 µM
22 | COc1ccc2c3c1O[C@H]1C[C@@H](O)C=C[C@@]31CCN(C(=O)NC(C)(C)C)C2 [Nr 115] | 7 µM | 2.5 µM

Row | Compound | IC50 (Butyrylcholinesterase) | IC50 (Acetylcholinesterase)
23 | COc1cc(C)c2c3c1OC1C[C@@H](O)C=CC31CCN(CCCN1CCCCC1)C2 (mixture of isomers) [Nr 64] | 0.6 µM | 46 µM
24 | COc1ccc2c(c1)CC(CCCCN1CC[C@@]34C=C[C@H](O)C[C@@H]3Oc3c(OC)ccc(c34)C1)C2=O (stereo partly shown) [Nr 157] | 0.8 µM | 0.022 µM
25 | COc1ccc2c3c1OC1C[C@@H](O)C=CC31CCN(C(=O)N[C@H](C)c1ccccc1)C2 (mixture of isomers) [Nr 112] | > 100 µM | 30 µM
26 | COc1cc(N(C)C)c2c3c1O[C@H]1C[C@@H](O)C=C[C@@]31CCN(C)C2 [Nr 56] | 0.47 µM | > 100 µM
27 | CCN(CC)c1nc(N(CC)CC)nc(N2CCC34C=C[C@H](O)CC3Oc3c(OC)ccc(c34)C2)n1 (mixture of isomers) [Nr 95] | > 100 µM | 40 µM
28 | COc1ccc2c3c1OC1C[C@@H](O)C=CC31CCC(N)C2 (mixture of isomers) [Nr 140] | > 100 µM | 5.3 µM
29 | CC(C)NC(=O)N1CC[C@@]23C=C[C@H](O)C[C@@H]2Oc2c(O)ccc(c23)C1 [Nr 130] | 60 µM | 6.3 µM
30 | COc1cc2c(cc1OC)C(=O)C(CCCCN1CC[C@@]34C=C[C@H](O)C[C@@H]3Oc3c(OC)ccc(c34)C1)C2 (stereo partly shown) [Nr 154] | 0.8 µM | 0.02 µM
31 | COc1ccc2c3c1O[C@H]1C[C@@H](O)C=C[C@@]31CCN(C(N)=O)C2 [Nr 113] | > 100 µM | 44 µM
32 | COc1ccc2c3c1O[C@@H]1C[C@H](O)C=C[C@]31CCN(CCCN1CCCCC1)C2 [Nr 153] | 23 µM | 9 µM
33 | C=CC[N+]1(C)CCC23C=C[C@@H](O)CC2Oc2c(OC)cc(C)c(c23)C1 (mixture of isomers) [Nr 104] | 52 µM | > 100 µM
34 | COc1cc(Br)c2c3c1OC1C[C@@H](O)C=CC31CCN(CCC#N)C2 (mixture of isomers) [Nr 72] | 43 µM | > 100 µM
35 | COc1ccc2c3c1O[C@H]1C[C@@H](O)C=C[C@@]31CCN(CC(=O)N1CC3CC1CN3c1ccccc1)C2 (stereo partly shown) [Nr 143] | 2.4 µM | 8.4 µM
36 | COc1cc(N)c2c3c1O[C@H]1C[C@@H](O)C=C[C@@]31CCN(C)C2 [Nr 48] | 4.9 µM | 77 µM
37 | COc1ccc2c3c1O[C@H]1C[C@@H](O)C=C[C@@]31CCN(C)C2C#N (stereo partly shown) [Nr 133] | > 100 µM | 0.8 µM
38 | COc1ccc2c3c1O[C@H]1C[C@@H](O)C=C[C@@]31CCN(C)C2C (stereo partly shown) [Nr 135] | 25 µM | 4.2 µM
39 | COc1ccc2c3c1OC1C[C@@H](O)C=CC31CCN(c1ncccn1)C2 (mixture of isomers) [Nr 85] | 30 µM | 38 µM
40 | CCOC(=O)NN(CN1CC[C@@]23C=C[C@H](O)C[C@@H]2Oc2c(OC)ccc(c23)C1)C(=O)OCC [Nr 159] | > 100 µM | 3 µM
41 | COc1ccc2c3c1OC1C[C@@H](O)C=CC31CCN(c1ccnc(OCCCN(C)C)n1)C2 (mixture of isomers) [Nr 96] | 36 µM | 7.4 µM
42 | COc1ccc2c3c1OC1C[C@@H](O)C=CC31CCN(CCO)C2 (mixture of isomers) [Nr 34] | 26 µM | 14 µM
43 | COc1cc2c(cc1OC)C(=O)C(CCCCCN1CC[C@@]34C=C[C@H](O)C[C@@H]3Oc3c(OC)ccc(c34)C1)C2 (stereo partly shown) [Nr 158] | 0.24 µM | 0.0052 µM
44 | COc1ccc2c3c1O[C@H]1C[C@@H](O)C=C[C@@]31CCN(c1ccccc1)C2 [Nr 123] | 0.24 µM | 0.5 µM

Row | Compound | IC50 (Butyrylcholinesterase) | IC50 (Acetylcholinesterase)
45 | C=C(C)C[N+]1(C)CCC23C=C[C@@H](O)CC2Oc2c(OC)cc(C)c(c23)C1 (mixture of isomers) [Nr 102] | 95 µM | > 100 µM
46 | COc1ccc2c3c1OC1C[C@@H](O)C=CC31CCN(CCCN1CC3CC1CN3c1ccc(F)cc1)C2 (mixture of isomers) [Nr 61] | 5 µM | 5.2 µM
47 | C=CCCC(=O)N1CC[C@@]23C=C[C@H](O)C[C@@H]2Oc2c(OC)ccc(c23)C1 [Nr 147] | 2.6 µM | 8.4 µM
48 | COc1ccc2c3c1OC1C[C@@H](O)C=CC31CCN(C(=O)NC(C)C)C2 (mixture of isomers) [Nr 75] | > 100 µM | 4.2 µM
49 | COc1cc(Br)c2c3c1OC1C[C@@H](O)C=CC31CCN(C(=O)NC(C)C)C2 (mixture of isomers) [Nr 70] | 25 µM | > 100 µM
50 | COc1ccc2c3c1OC1C[C@@H](O)C=CC31CCN(CC#N)C2 (mixture of isomers) [Nr 37] | > 100 µM | 30 µM
51 | COc1cc(Br)c2c3c1OC1C[C@@H](O)C=CC31CCN(CCO)C2 (mixture of isomers) [Nr 33] | 6.4 µM | 34 µM
52 | COc1ccc2c3c1OC1C[C@@H](O)C=CC31CCN(/C(=N/C#N)SC)C2 (mixture of isomers) [Nr 79] | 0.54 µM | 25 µM
53 | COc1cc(Br)c2c3c1O[C@@H]1C[C@H](O)C=C[C@]31CCN(C(=O)CCN1CCCC1)C2 [Nr 271] | 66 µM | > 100 µM
54 | COc1cc([N+](=O)[O-])c2c3c1O[C@H]1C[C@@H](O)C=C[C@@]31CCN(C)C2 [Nr 45] | 25 µM | > 100 µM
55 | C=CCN1CCC23C=C[C@H](O)CC2Oc2c(OC)cc(Br)c(c23)C1 (mixture of isomers) [Nr 35] | 2.6 µM | > 100 µM
56 | COc1ccc2c3c1O[C@@H]1C[C@H](O)C=C[C@]31CCN(C(=O)NC(C)C)C2 [Nr 126] | 90 µM | 8 µM
57 | COc1ccc2c3c1OC1C[C@@H](O)C=CC31CCN(CCCN1CC3CC1CN3c1ccccc1)C2 (mixture of isomers) [Nr 60] | 7.5 µM | 24 µM
58 | COc1cc(Br)c2c(c1O)C13C=C[C@@H](O)CC1N(CC3)C2 (mixture of isomers) [Nr 14] | 18 µM | > 100 µM
59 | COc1ccc2c3c1O[C@H]1C[C@@H](O)C=C[C@@]31CCN(CCCO)C2 [Nr 144] | 5 µM | 2.8 µM
60 | COc1ccc2c3c1OC1C[C@@H](O)C=CC31CCN(Cc1ccccc1)C2 (mixture of isomers) [Nr 41] | 0.65 µM | 0.7 µM
61 | COc1ccc2c3c1OC1C[C@@H](O)C=CC31CCN(CCCO)C2 (mixture of isomers) [Nr 81] | 21 µM | 7.2 µM
62 | C#CC[N+]1(C)CC[C@@]23C=C[C@H](O)C[C@@H]2Oc2c(OC)ccc(c23)C1 (stereo partly shown) [Nr 16] | 1.7 µM | 1.4 µM
63 | COc1ccc2c3c1O[C@H]1C[C@@H](O)C=C[C@@]31CC[N+](C)(CC=C(C)C)C2 (stereo partly shown) [Nr 54] | 0.21 µM | 0.2 µM
64 | COC(=O)/C=C(\C(=O)OC)N1CCC23C=C[C@H](O)CC2Oc2c(OC)ccc(c23)C1 (mixture of isomers) [Nr 108] | 80 µM | 140 µM
65 | COc1cc(C)c2c3c1O[C@H]1C[C@H](O)C=C[C@@]31CCN(CCCN1CCCCC1)C2 [Nr 138] | 70 µM | > 100 µM

Reference: patent publication US20060111341A1, “Use of galanthamine and the derivatives thereof in the production of medicaments” (priority 2003, published 2006)
